Laboratory results reported in ChEMBL document CHEMBL1201862, “PubChem BioAssay data set” (2004).
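96-well plates; 48 h exposure; 5 concentrations. Endpoints by linear interpolation between flanking doses. Not reached: highest tested concentration assigned. At the GI50, growth is halved.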 Active and inactive are the calls of the source. No stated cut-off is given here; in the data, active = GI50 up to about 1.1 µM and inactive = higher.

What was measured:
Assay in all cases: NCI-60 cell line screen, 48 h
[1] = tested on: SNB-75
[2] = tested on: TK-10
[3] = tested on: MOLT-4
[4] = tested on: COLO 205
[5] = tested on: NCI-H460
[6] = tested on: CCRF-CEM
[7] = tested on: HL-60
[8] = tested on: SF-268
[9] = tested on: SK-OV-3
[10] = tested on: OVCAR-3
[11] = tested on: OVCAR-8
[12] = tested on: HOP-92
[13] = tested on: CAKI-1
[14] = tested on: SK-MEL-28
[15] = tested on: IGROV-1
[16] = tested on: NCI-H522
[17] = tested on: LOX IMVI
[18] = tested on: EKVX

| SMILES | GI50 [1] | GI50 [2] | GI50 [3] | GI50 [4] | GI50 [5] | GI50 [6] | GI50 [7] | GI50 [8] | GI50 [9] | GI50 [10] | GI50 [11] | GI50 [12] | GI50 [13] | GI50 [14] | GI50 [15] | GI50 [16] | GI50 [17] | GI50 [18] |
| --- | --- | --- | --- | --- | --- | --- | --- | --- | --- | --- | --- | --- | --- | --- | --- | --- | --- | --- |
| Cc1cc(O)nc(CNC(=O)c2ccc3ccccc3c2)n1 | > 100 µM (inactive) | > 100 µM (inactive) | > 100 µM (inactive) | > 100 µM (inactive) | > 100 µM (inactive) | > 100 µM (inactive) | > 100 µM (inactive) | > 100 µM (inactive) | > 100 µM (inactive) | > 100 µM (inactive) | > 100 µM (inactive) | > 100 µM (inactive) | > 100 µM (inactive) | > 100 µM (inactive) | > 100 µM (inactive) | > 100 µM (inactive) | > 100 µM (inactive) | > 100 µM (inactive) |
| CCCCCCCC(=O)OCC1OC(OC)C(NC(=O)N(CCCl)N=O)C(O)C1O (centres undefined) | 4.72 µM (inactive) | 18.5 µM (inactive) | 3.05 µM (inactive) | 14.7 µM (inactive) | 3.46 µM (inactive) | 4.06 µM (inactive) | 4.14 µM (inactive) | 2.15 µM (inactive) | 28.5 µM (inactive) | 19.7 µM (inactive) | 18.2 µM (inactive) | 1.36 µM (inactive) | 9.08 µM (inactive) | 33.3 µM (inactive) | 21.7 µM (inactive) | 11.2 µM (inactive) | 0.908 µM (active) | 30.6 µM (inactive) |
| CCn1c(C)nc([N+](=O)[O-])c1Sc1ncc[nH]1 | 50.6 µM (inactive) | > 100 µM (inactive) | 16.7 µM (inactive) | 27.9 µM (inactive) | 66.2 µM (inactive) | 19.8 µM (inactive) |  | 69.7 µM (inactive) | > 100 µM (inactive) | 74.8 µM (inactive) | 46.1 µM (inactive) | 25.8 µM (inactive) | 68.1 µM (inactive) | 31 µM (inactive) | 71 µM (inactive) | 15.6 µM (inactive) | 14.7 µM (inactive) | 75.7 µM (inactive) |
| NC(=O)/N=C1/CCC2C3CCCC2C13 | > 100 µM (inactive) | > 100 µM (inactive) | > 100 µM (inactive) | > 100 µM (inactive) | > 100 µM (inactive) | > 100 µM (inactive) | > 100 µM (inactive) | > 100 µM (inactive) | > 100 µM (inactive) | > 100 µM (inactive) | > 100 µM (inactive) | > 100 µM (inactive) | > 100 µM (inactive) | > 100 µM (inactive) | > 100 µM (inactive) | > 100 µM (inactive) | > 100 µM (inactive) | > 100 µM (inactive) |
| COC(=O)c1ccc(C=C(C#N)C#N)cc1 | 27.4 µM (inactive) | 27.9 µM (inactive) | 21.7 µM (inactive) | 27.7 µM (inactive) | 83.6 µM (inactive) | 21.5 µM (inactive) | 28.4 µM (inactive) | 23 µM (inactive) | > 100 µM (inactive) | 29.4 µM (inactive) | 21.9 µM (inactive) | 14.7 µM (inactive) | 30.7 µM (inactive) | 19.3 µM (inactive) | 28.4 µM (inactive) | 13.7 µM (inactive) | 21 µM (inactive) | 33.8 µM (inactive) |
| COc1ccc(/C=C2\C(=O)Nc3ccccc32)cc1OC | 24.5 µM (inactive) | > 100 µM (inactive) | > 100 µM (inactive) | > 100 µM (inactive) | 78.9 µM (inactive) | > 100 µM (inactive) | 46.7 µM (inactive) | > 100 µM (inactive) | 32 µM (inactive) |  | > 100 µM (inactive) | 44.6 µM (inactive) | > 100 µM (inactive) | > 100 µM (inactive) | > 100 µM (inactive) | 79.3 µM (inactive) | 45.3 µM (inactive) | > 100 µM (inactive) |
| COc1ccc2[nH]cc(CCNC(=O)[C@](O)(Cc3cn(C)c4ccccc34)[C@@]3(O)OCC(O)C3O)c2c1 (some centres undefined) | 38.5 µM (inactive) | > 100 µM (inactive) | 37 µM (inactive) | > 100 µM (inactive) | 77.4 µM (inactive) | 35.8 µM (inactive) | 32.1 µM (inactive) | 82.6 µM (inactive) | > 100 µM (inactive) | > 100 µM (inactive) | > 100 µM (inactive) | 50.2 µM (inactive) | > 100 µM (inactive) | > 100 µM (inactive) | > 100 µM (inactive) | > 100 µM (inactive) | > 100 µM (inactive) | > 100 µM (inactive) |
| CCCC(=O)Oc1ccc(/C=N/NC(N)=S)nc1 | > 100 µM (inactive) | > 100 µM (inactive) | 46.8 µM (inactive) | > 100 µM (inactive) | > 100 µM (inactive) | 25.5 µM (inactive) | 45.1 µM (inactive) | 60 µM (inactive) | > 100 µM (inactive) | > 100 µM (inactive) | 41.8 µM (inactive) | > 100 µM (inactive) | > 100 µM (inactive) | > 100 µM (inactive) | > 100 µM (inactive) | 69 µM (inactive) | 54.3 µM (inactive) | > 100 µM (inactive) |
| COc1cc2c(c(O)c1O)-c1ccc(OC)c(=O)cc1C(NC(C)=O)CC2 (centres undefined) | 2.57 µM (inactive) | 64.3 µM (inactive) | 5.5 µM (inactive) | 3.87 µM (inactive) | 25.2 µM (inactive) | 3.49 µM (inactive) | 2.21 µM (inactive) | 5.75 µM (inactive) | 15 µM (inactive) | 2.4 µM (inactive) | 15.6 µM (inactive) | 4.59 µM (inactive) | 78.5 µM (inactive) | 24.8 µM (inactive) | 32.1 µM (inactive) | 2.42 µM (inactive) | 6.82 µM (inactive) | 39 µM (inactive) |
| COC(=O)c1cc2c(=O)n(C)c3ccccc3n2c1C(=O)OC | 16.1 µM (inactive) | 25.6 µM (inactive) | > 100 µM (inactive) | > 100 µM (inactive) | > 100 µM (inactive) | > 100 µM (inactive) |  | 30.3 µM (inactive) | 28.1 µM (inactive) | 30 µM (inactive) | 35.8 µM (inactive) | 33 µM (inactive) | 73.5 µM (inactive) | 70.5 µM (inactive) | 56.6 µM (inactive) | 20 µM (inactive) | 45.2 µM (inactive) | 26.9 µM (inactive) |
| CC[C@H]1CC(=O)c2c(cc3c(c2O)C(=O)c2ccccc2C3=O)[C@@]1(C#N)C(=O)OC(C)(C)C | 4.1 µM (inactive) | 4.78 µM (inactive) | 2.33 µM (inactive) | 1.96 µM (inactive) | 2.7 µM (inactive) |  |  | 5.36 µM (inactive) | 3.65 µM (inactive) | 2.81 µM (inactive) | 2.62 µM (inactive) | 9.31 µM (inactive) |  | 5.92 µM (inactive) | 2.4 µM (inactive) | 2.29 µM (inactive) | 3.54 µM (inactive) | 4.94 µM (inactive) |
| O=C(N/C(=C\c1ccc(Cl)cc1)c1nc2ccccc2[nH]1)c1ccccc1 | 19.7 µM (inactive) | 30.3 µM (inactive) | 16.5 µM (inactive) | 17.7 µM (inactive) | 22.1 µM (inactive) | 20 µM (inactive) |  | 16.3 µM (inactive) | 37.1 µM (inactive) | 19.6 µM (inactive) | 24.5 µM (inactive) | 14.9 µM (inactive) | 20.6 µM (inactive) | 18.5 µM (inactive) | 19.4 µM (inactive) | 12.7 µM (inactive) | 16.2 µM (inactive) | 26.9 µM (inactive) |
